The experiment addresses T1, FXR (CMX-hFXR) (Homo sapiens, UniProt Q96RI1).
T1 construct: expressed in transfected cells; host or cells: CV-1 African Green Monkey Kidney cells
T1 sequence (Q96RI1 1-472 isoform Q96RI1-2): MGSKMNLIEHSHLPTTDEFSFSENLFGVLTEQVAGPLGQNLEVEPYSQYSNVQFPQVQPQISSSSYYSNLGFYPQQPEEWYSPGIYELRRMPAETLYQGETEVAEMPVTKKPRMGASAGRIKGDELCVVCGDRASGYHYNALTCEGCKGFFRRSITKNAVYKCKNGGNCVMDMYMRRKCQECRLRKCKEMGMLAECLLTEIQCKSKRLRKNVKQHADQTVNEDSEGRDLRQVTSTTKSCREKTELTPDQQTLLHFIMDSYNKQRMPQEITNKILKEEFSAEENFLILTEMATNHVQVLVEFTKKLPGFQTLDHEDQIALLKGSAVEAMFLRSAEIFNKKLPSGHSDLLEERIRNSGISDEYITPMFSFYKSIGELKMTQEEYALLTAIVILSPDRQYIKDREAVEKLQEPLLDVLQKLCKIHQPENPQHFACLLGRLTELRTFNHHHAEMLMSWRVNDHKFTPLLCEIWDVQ
T1 sequence (P19793 1-462 partner): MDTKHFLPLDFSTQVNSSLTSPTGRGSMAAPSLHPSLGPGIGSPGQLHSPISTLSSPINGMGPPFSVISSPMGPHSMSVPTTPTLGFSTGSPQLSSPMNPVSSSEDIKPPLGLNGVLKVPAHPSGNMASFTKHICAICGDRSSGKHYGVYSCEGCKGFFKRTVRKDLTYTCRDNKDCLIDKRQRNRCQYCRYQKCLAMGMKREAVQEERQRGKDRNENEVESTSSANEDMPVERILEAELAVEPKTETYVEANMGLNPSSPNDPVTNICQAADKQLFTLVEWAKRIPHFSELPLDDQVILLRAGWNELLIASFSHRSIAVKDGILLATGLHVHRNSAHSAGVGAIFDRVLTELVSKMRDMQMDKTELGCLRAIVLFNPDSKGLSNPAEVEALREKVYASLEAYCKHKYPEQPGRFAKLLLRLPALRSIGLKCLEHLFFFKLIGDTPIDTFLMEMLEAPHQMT
As to the kind of experiment: FXR co-transfection assay (FXR/ECREx7). The experiment is classed as cell-based. Conditions: for EC50: CV-1 cells, agonist mode; for Emax: relative to maximum response of chenodeoxycholic acid (CDCA), read-out: % efficacy. The procedure:
The basic co-transfection protocol for measuring FXR activity is as follows. CV-1 African Green Monkey Kidney cells are plated 24 hours before transfection to achieve approximately 70-80 percent confluency. Cells are transfected with CMX-hFXR, CMX-RXRα, Luc12 reporter (ECREx7-Tk-Luciferase), and a CMX-β-Galactosidase expression vector (See WO 00/76523). The transfection reagent used is DOTAP (Boehringer Mannheim). Cells are incubated with the DOTAP/DNA mixture for 5 hours after which the cells are harvested and plated onto either 96 well or 384 well plates containing the appropriate concentration of test compound. The assay is allowed to continue for an additional 18-20 hours, after which the cells are lysed, with lysis buffer (1% triton X 100, 10% glycerol, 5 mM Dithiothreitol, 1 mM EGTA, 25 mM Tricine, pH 7.8) and the luciferase activity is measured in the presence of Luciferase assay buffer (0.73 mM ATP, 22.3 mM Tricine, 0.11 mM EGTA, 0.55 mM Luciferin, 0.15 mM Coenzyme A, 0.5 mM HEPES, 10 mM Magnesium sulphate) on a standard luminometer plate reader (PE Biosystems, NorthStar Reader).
Both the FXR/ECREx7 co-transfection assay (Example 15) and the TR-FRET assay (Example 16) can be used to establish the EC50/IC50 values for potency and percent activity or inhibition for efficacy. Efficacy defines the activity of a compound relative to a high control (chenodeoxycholic acid, CDCA) or a low control (DMSO/vehicle). The dose response curves are generated from an 8 point curve with concentrations differing by 1/2 LOG units. Each point represents the average of 4 wells of data from a 384 well plate. The curve for the data is generated by using the equation: Y=Bottom+(Top−Bottom)/(1+10^((Log EC50−X)*HillSlope))
The EC50/IC50 is therefore defined as the concentration at which an agonist or antagonist elicits a response that is half way between the Top (maximum) and Bottom (baseline) values. The EC50/IC50 values represented are the averages of at least 3 independent experiments. The determination of the relative efficacy or % control for an agonist is by comparison to the maximum response achieved by chenodeoxycholic acid that is measured individually in each dose response experiment.
For the antagonist assay, CDCA is added to each well of a 384 well plate to elicit a response. The % inhibition for each antagonist is therefore a measurement of the inhibition of the activity of CDCA. In this example, 100% inhibition would indicate that the activity of CDCA has been reduced to baseline levels, defined as the activity of the assay in the presence of DMSO only.

One may read the EC50 as the concentration that produces a half-maximal response. High values mean lower potency in that assay, low ones higher potency in that assay.

For the compound `Cc1ccc(-n2c(C(C)N(C)S(=O)(=O)c3ccc(C(C)(C)C)cc3)nc3ccc(-c4cccs4)cc3c2=O)cc1` (stereo not shown), the EC50 is approximately 600 nM and the Emax was approximately 110%.

As for `COc1ccc(-n2c(C(C)N(C)S(=O)(=O)c3ccc(C(C)(C)C)cc3)nc3ccc(OC)cc3c2=O)cc1` (stereo not shown) [4-tert-butyl-N-{1-[6-methoxy-3-(4-methoxyphenyl)-4-oxo-3,4-dihydroquinazolin-2-yl]ethyl}-N-methylbenzenesulfonamide], the EC50 is approximately 300 nM and the Emax was approximately 190%.

These data come from patent US8748440B2 (Exelixis, Inc., priority 2002, dated 2014).
